Reference: PubChem BioAssay AID1963958 (Molecular Pharmacology Branch, DTP, NCI, 2024)
Each block holds one compound with its values, some of them ahead of it.

System: MDA-MB-231 multicell spheroids, viability
Assay: Anticancer human tumor MDA-MB-231 cell line growth inhibition [PI3K];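 also: spheroids exposed to agents for seven days before reading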;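 as to viability, T/C: percent of vehicle control luminescence with DMSO treated spheroids as 100%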
Conditions: for IC50: curve of first compound; for viability, T/C: stronger effect = lower value
Source text: Combinatorial screen of targeted agents with the PI3K inhibitors inavolisib, alpelisib, duvelisib, and copanlisib in multi-cell type tumor spheroids
A high-throughput screen of multi-cell type tumor spheroids was designed to identify active combinations of targeted small molecules and PI3K pathway inhibitors. Complex spheroids include a stromal component modeled by human endothelial cells (HUVEC) and fibroblasts modeled by human mesenchymal stem cells (MSCs). The concentration ranges selected for each drug and investigational agent were based upon clinically achievable concentrations if the clinical Cmax of the agent was known.
Compounds. The drugs and investigational agents: inavolisib (NSC800729), alpelisib (NSC765974), duvelisib (NSC772469), copanlisib (NSC816437), ipatasertib (NSC767898), afuresertib (NSC778305), talazoparib (NSC767125), sapanisertib (NSC764658), selumetinib (NSC741078), tovorafenib (DAY101, NSC766906), vemurafenib (NSC761431), ravoxertinib (NSC781343), sotorasib (NSC818433), MRTX1133 (NSC 836407), abemaciclib (NSC 768073), palbociclib (NSC758247), venetoclax (NSC 766270), SY5609 (NSC837396), enzalutamide (NSC755605), and darolutamide (NSC825331), were obtained from the National Cancer Institute (NCI) Developmental Therapeutics Program Chemical Repository. The FDA-approved anticancer drug set is available from the NCI Developmental Therapeutics Program. […] The stock solutions were prepared in dimethyl sulfoxide (DMSO, Sigma-Aldrich, St. Louis, MO, cat. D2650) at 800-fold the tested concentration and stored at -70 degrees C prior to their use. All drugs and investigational agents were tested over a range starting from a high concentration at or near the clinical Cmax and decreasing in half-log increments. If the clinical Cmax for an agent had not been determined, the highest concentration tested was 10 microM.
Cell Culture. All cells were maintained in an incubator at 37 degrees C and 5% CO2 with 95% humidity. The PDC lines were cultured according to standard operating procedures established by the NCI PDMR (https://pdmr.cancer.gov/sops/default.htm). All PDCs were thawed and cultured in Matrigel-coated flasks prepared with a working solution of 1X Ham's F-12 nutrient mix, without supplementation (Invitrogen, Waltham, MA, cat. 11765054), 100 U/mL penicillin-streptomycin (Invitrogen, cat. 15140122), and 2.5% Matrigel (Corning Inc., Corning, NY, cat. 354248) for the first three passages. The 354836-022-R-J1-PDC, 475296-252-R-J1-PDC, and 997726-040-R-J2-PDC lines were cultured in 6A media, which includes advanced DMEM/F-12 (Thermo Fisher Scientific, cat. 12634028), 10 mM HEPES (Thermo Fisher Scientific, cat. 15630080), 1X GlutaMAX supplement (Thermo Fisher Scientific, cat. 35050061), 0.1 mg/mL primocin (InvivoGen, San Diego, CA, cat. ant-pm-2), 10% defined fetal bovine serum, heat inactivated (HyClone Laboratories Inc., Logan, UT, cat. SH30070.03HI), 50% L-WRN conditioned media (ATCC, cat. CRL-3276), 1.25 mM N-Acetyl-L-cysteine (Sigma-Aldrich, cat. A9165), 10 mM nicotinamide (Sigma-Aldrich, cat. N0636), 1X B-27 supplement (Thermo Fisher Scientific, cat. 17504044), 1X N-2 supplement (Thermo Fisher Scientific, cat. 17502048), and 10 microM Y-27632 dihydrochloride (Tocris Bioscience, Bristol, United Kingdom, cat. 1254). The 624824-186-R-J2-PDC line was cultured in 6C/Colon 1B media, which includes all 6A media components plus 50 ng/mL human EGF recombinant protein (Thermo Fisher Scientific, cat. PHG0311). […]

[1] = second compound 0.00316 µM, first compound 0.0316 µM
[2] = second compound 0.00316 µM, first compound 0.1 µM
[3] = second compound 0.00316 µM, first compound 0.316 µM
[4] = second compound 0.00316 µM, first compound 1 µM
[5] = second compound 0.00316 µM, first compound 3.16 µM
[6] = second compound 0.00316 µM, first compound 10 µM
[7] = second compound 0.01 µM, first compound 0.0316 µM
[8] = second compound 0.01 µM, first compound 0.1 µM
[9] = second compound 0.01 µM, first compound 0.316 µM
[10] = second compound 0.01 µM, first compound 1 µM
[11] = second compound 0.01 µM, first compound 3.16 µM
[12] = second compound 0.01 µM, first compound 10 µM
[13] = second compound 0.0316 µM, first compound 0.0316 µM
[14] = second compound 0.0316 µM, first compound 0.1 µM
[15] = second compound 0.0316 µM, first compound 0.316 µM
[16] = second compound 0.0316 µM, first compound 1 µM
[17] = second compound 0.0316 µM, first compound 3.16 µM
[18] = second compound 0.0316 µM, first compound 10 µM
[19] = second compound 0.1 µM, first compound 0.0316 µM
[20] = second compound 0.1 µM, first compound 0.1 µM
[21] = second compound 0.1 µM, first compound 0.316 µM
[22] = second compound 0.1 µM, first compound 1 µM
[23] = second compound 0.1 µM, first compound 3.16 µM
[24] = second compound 0.1 µM, first compound 10 µM
[25] = second compound 0.316 µM, first compound 0.0316 µM
[26] = second compound 0.316 µM, first compound 0.1 µM
[27] = second compound 0.316 µM, first compound 0.316 µM
[28] = second compound 0.316 µM, first compound 1 µM
[29] = second compound 0.316 µM, first compound 3.16 µM
[30] = second compound 0.316 µM, first compound 10 µM
[31] = second compound 1 µM, first compound 0.0316 µM
[32] = second compound 1 µM, first compound 0.1 µM
[33] = second compound 1 µM, first compound 0.316 µM
[34] = second compound 1 µM, first compound 1 µM
[35] = second compound 1 µM, first compound 3.16 µM
[36] = second compound 1 µM, first compound 10 µM

IC50 (second compound 0.00316 µM): > 10000 nM
IC50 (second compound 0.01 µM): > 10000 nM
IC50 (second compound 0.0316 µM): > 10000 nM
IC50 (second compound 0.1 µM): > 10000 nM
IC50 (second compound 0.316 µM): > 10000 nM
IC50 (second compound 1 µM): > 10000 nM
Structure (SMILES): CC(Cn1ccc(-c2ccc(C#N)c(Cl)c2)n1)NC(=O)c1cc(C(C)O)[nH]n1 (centres undefined) + CC(Nc1ccc2c(c1)OCCn1cc(N3C(=O)OCC3C(F)F)nc1-2)C(N)=O
viability, T/C [1]: 102%
viability, T/C [2]: 95.6%
viability, T/C [3]: 104%
viability, T/C [4]: 95%
viability, T/C [5]: 96.5%
viability, T/C [6]: 88.1%
viability, T/C [7]: 96%
viability, T/C [8]: 97.5%
viability, T/C [9]: 91.8%
viability, T/C [10]: 94.6%
viability, T/C [11]: 84.4%
viability, T/C [12]: 77%
viability, T/C [13]: 83.2%
viability, T/C [14]: 81.7%
viability, T/C [15]: 82.4%
viability, T/C [16]: 77%
viability, T/C [17]: 74.3%
viability, T/C [18]: 64%
viability, T/C [19]: 80.1%
viability, T/C [20]: 69.6%
viability, T/C [21]: 72%
viability, T/C [22]: 69.9%
viability, T/C [23]: 64.8%
viability, T/C [24]: 50.3%
viability, T/C [25]: 63.5%
viability, T/C [26]: 63.3%
viability, T/C [27]: 65.1%
viability, T/C [28]: 61.2%
viability, T/C [29]: 60.8%
viability, T/C [30]: 53.6%
viability, T/C [31]: 66%
viability, T/C [32]: 56.3%
viability, T/C [33]: 64.5%
viability, T/C [34]: 60.2%
viability, T/C [35]: 56.1%
viability, T/C [36]: 48.8%

IC50 (second compound 0.00316 µM): 1080 nM
IC50 (second compound 0.01 µM): 618 nM
IC50 (second compound 0.0316 µM): 270 nM
IC50 (second compound 0.1 µM): 88.8 nM
IC50 (second compound 0.316 µM): 66.9 nM
IC50 (second compound 1 µM): < 31.6 nM
Structure (SMILES): Cn1nccc1Nc1nccc(-c2ccn(C(CO)c3ccc(Cl)c(F)c3)c(=O)c2)n1 (centres undefined) + CC(Nc1ccc2c(c1)OCCn1cc(N3C(=O)OCC3C(F)F)nc1-2)C(N)=O
viability, T/C [1]: 64.6%
viability, T/C [2]: 68.1%
viability, T/C [3]: 56.8%
viability, T/C [4]: 50.9%
viability, T/C [5]: 39.6%
viability, T/C [6]: 26.9%
viability, T/C [7]: 71.6%
viability, T/C [8]: 64.4%
viability, T/C [9]: 52%
viability, T/C [10]: 46.9%
viability, T/C [11]: 39.6%
viability, T/C [12]: 23%
viability, T/C [13]: 69.2%
viability, T/C [14]: 56.4%
viability, T/C [15]: 47.3%
viability, T/C [16]: 42.2%
viability, T/C [17]: 29.4%
viability, T/C [18]: 20.4%
viability, T/C [19]: 56.4%
viability, T/C [20]: 46.6%
viability, T/C [21]: 43%
viability, T/C [22]: 40.2%
viability, T/C [23]: 25.5%
viability, T/C [24]: 20.8%
viability, T/C [25]: 53.4%
viability, T/C [26]: 48.5%
viability, T/C [27]: 42.1%
viability, T/C [28]: 33.4%
viability, T/C [29]: 26.3%
viability, T/C [30]: 19%
viability, T/C [31]: 51.2%
viability, T/C [32]: 42.3%
viability, T/C [33]: 38.5%
viability, T/C [34]: 36.1%
viability, T/C [35]: 26.6%
viability, T/C [36]: 16.2%
